Columns and labels:
[1] = cited from earlier work
[2] = Stability and hygroscopicity of the bulk monosodium salt carbapenem on storage; type: physicochemical
Method: and a process for the preparation thereof.
During the manufacture of bulk compound products such as beta-lactam and carbapenem antibiotics, the pharmaceutical compound is prepared by chemical synthesis from raw materials in large quantities. As with many carbapenem compounds, the compound in accordance with formula I is prepared in large batches as a monosodium salt. The compound is a weakly crystalline solid, hygroscopic at ambient conditions, and is unstable at room and refrigerated temperatures. Therefore, the bulk compound must be stored at a temperature of about −20° C. to prevent degradation into dimer and open ring by-products.

hygroscopicity ([2]; ambient conditions, weakly crystalline solid): hygroscopic
stability at room and refrigerated temperatures ([2]; bulk monosodium salt): unstable
Compound: CC(O)C1C(=O)N2C(C(=O)[O-])=C(SC3CNC(C(=O)Nc4cccc(C(=O)O)c4)C3)C(C)C12.[Na+] (stereo not shown) [formula I]
stability at ambient conditions ([1]; 20° C. and 1 atmosphere, monosodium salt): relatively unstable
stability at temperatures above about −20° C. ([1]; undergoes dimerization and hydrolysis to dimers and open ring by-products): remains unstable

— patent publication US6548492B1, “Process for formulation of carbapenem antibiotic compositions” (Merck & Co., Inc., priority 1999, dated 2003)
